Patent US12252524B2, “GIP/GLP1 co-agonist compounds” (Eli Lilly and Company, priority 2018, dated 2025)
Numbered stars: 1 amine (or outer) side, 2 acyl side, 3 side chain; on linkers, the order of the positions; unused ones are H or OH. Square brackets hold non-standard residues; d marks the D form. Side chains are listed from the residue outwards. Peptide text beside a SMILES is read from it. * marks the point of attachment. C20 diacid = O=C(O)CCCCCCCCCCCCCCCCCCC(=O)*; γGlu = O=C(O)[C@H](CCC(=O)[*:2])N[*:1]; AEEA = NCCOCCOCC(=O)O; Aib = CC(C)(N)C(=O)O

What was measured:
human GIP receptor = target: T1, human GIP receptor (Homo sapiens, UniProt P48546); assay: [125I]-GIP binding (SPA), human GIP receptor; details: read-out: hGIPR Ki, nM (SEM, n)
T1 construct: expressed in transfected cells; crude membranes
T1 sequence (P48546 22-466): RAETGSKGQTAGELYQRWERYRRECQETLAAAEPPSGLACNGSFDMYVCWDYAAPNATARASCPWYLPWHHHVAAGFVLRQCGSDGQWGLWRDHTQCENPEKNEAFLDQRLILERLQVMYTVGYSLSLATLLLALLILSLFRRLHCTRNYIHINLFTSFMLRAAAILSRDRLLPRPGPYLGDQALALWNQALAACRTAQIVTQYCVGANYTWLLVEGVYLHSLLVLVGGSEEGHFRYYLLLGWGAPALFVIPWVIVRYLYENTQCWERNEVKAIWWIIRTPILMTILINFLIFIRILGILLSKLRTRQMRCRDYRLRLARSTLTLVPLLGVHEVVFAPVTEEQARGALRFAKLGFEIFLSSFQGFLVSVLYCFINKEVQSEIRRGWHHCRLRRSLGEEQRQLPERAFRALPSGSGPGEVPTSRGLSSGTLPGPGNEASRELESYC

human Gcg receptor = target: T2, human Gcg receptor (Homo sapiens, UniProt P47871); assay: [125I]-Glucagon binding (SPA), human Gcg receptor; details: read-out: hGLcgR Ki, nM (SEM, n)
T2 construct: expressed in transfected cells; crude membranes
In short: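 Scintillation counts are taken after membranes and WGA beads incubate and settle for 12 hours at room temperature. Buffer is 25 mM HEPES, pH 7.4, with CaCl2, MgCl2, bacitracin and Tween-20. Ki values, from four-parameter IC50 fits, are geometric means over independent days.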

[1] = target: T3, gastric inhibitory peptide receptor (GIPR) (Homo sapiens, UniProt P48546); assay: cAMP pharmacological functional assay in presence of casein, hGIPR; type: cell-based; details: HEK293 cells expressing hGIPR, 0.1% Casein, geometric mean; read-out: hGIPR cAMP Rel EC50 nM (SEM, n)
T3 sequence (P48546 22-466): T1 sequence (P48546 22-466)

[2] = target: human GLP-1 receptor (GLP-1R) (Homo sapiens, UniProt P43220); assay: cAMP pharmacological functional assay in presence of casein, hGLP-1R; type: cell-based; details: HEK293 cells expressing hGLP-1R, 0.1% Casein, geometric mean; read-out: hGLP1R cAMP Rel EC50 nM (SEM, n)
human GLP-1R = human GLP-1R (Homo sapiens, UniProt P43220); assay: [125I]-GLP-1 binding (SPA), human GLP-1 receptor; set-up: expressed in transfected cells; crude membranes; details: read-out: hGLP1R Ki, (nM) (SEM, n)
In short: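 Frozen cell pellets are lysed on ice in hypotonic Tris buffer, pH 7.5, homogenized, and centrifuged to a membrane pellet resuspended at about 1 to 3 mg/mL. Binding is then measured in HEPES-based buffer at pH 7.4, and curves are fitted to give IC50 and Ki.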

T2 sequence (P47871 26-477): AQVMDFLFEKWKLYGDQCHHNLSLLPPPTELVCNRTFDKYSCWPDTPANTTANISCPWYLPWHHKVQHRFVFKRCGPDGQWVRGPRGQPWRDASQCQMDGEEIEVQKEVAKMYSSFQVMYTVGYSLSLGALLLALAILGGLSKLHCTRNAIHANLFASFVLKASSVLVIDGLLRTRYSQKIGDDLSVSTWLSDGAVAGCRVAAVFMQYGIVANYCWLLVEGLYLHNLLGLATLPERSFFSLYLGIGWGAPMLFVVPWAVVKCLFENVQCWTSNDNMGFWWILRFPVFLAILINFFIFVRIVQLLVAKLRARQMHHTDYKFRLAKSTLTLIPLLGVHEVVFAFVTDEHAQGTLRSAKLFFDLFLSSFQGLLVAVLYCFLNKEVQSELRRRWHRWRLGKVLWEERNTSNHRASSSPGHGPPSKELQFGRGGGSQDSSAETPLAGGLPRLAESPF
Chain of human GLP-1 receptor (GLP-1R) (P43220 24-463): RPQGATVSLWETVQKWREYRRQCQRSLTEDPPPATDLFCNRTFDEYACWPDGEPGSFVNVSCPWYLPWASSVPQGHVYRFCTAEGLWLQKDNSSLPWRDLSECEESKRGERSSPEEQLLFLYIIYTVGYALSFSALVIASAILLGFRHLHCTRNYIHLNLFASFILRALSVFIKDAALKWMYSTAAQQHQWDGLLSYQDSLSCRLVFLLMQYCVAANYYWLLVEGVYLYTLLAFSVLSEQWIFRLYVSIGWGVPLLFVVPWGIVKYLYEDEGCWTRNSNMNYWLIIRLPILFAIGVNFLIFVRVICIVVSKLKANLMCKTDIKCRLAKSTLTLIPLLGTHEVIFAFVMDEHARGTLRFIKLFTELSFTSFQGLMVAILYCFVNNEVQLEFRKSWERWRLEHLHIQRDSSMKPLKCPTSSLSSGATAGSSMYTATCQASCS
Chain of human GLP-1R (P43220 24-463): as above

Compound `CC[C@H](C)[C@H](NC(=O)[C@H](CCCCN)NC(=O)[C@H](CC(=O)O)NC(=O)[C@H](CC(C)C)NC(=O)[C@H](CC(C)C)NC(=O)[C@@H](NC(=O)[C@H](CO)NC(=O)[C@H](Cc1ccc(O)cc1)NC(=O)[C@H](CC(=O)O)NC(=O)[C@H](CO)NC(=O)[C@@H](NC(=O)[C@H](Cc1ccccc1)NC(=O)[C@@H](NC(=O)CNC(=O)[C@H](CCC(=O)O)NC(=O)C(C)(C)NC(=O)[C@@H](N)Cc1ccc(O)cc1)[C@@H](C)O)[C@@H](C)O)[C@@H](C)CC)C(=O)N[C@@H](C)C(=O)N[C@@H](CCC(N)=O)C(=O)NC(C)(C)C(=O)N[C@@H](C)C(=O)N[C@@H](Cc1ccccc1)C(=O)N[C@H](C(=O)N[C@@H](CCC(=O)O)C(=O)N[C@@H](Cc1ccc(O)cc1)C(=O)N[C@@H](CC(C)C)C(=O)N[C@H](C(=O)N[C@@H](CCC(=O)O)C(=O)N[C@@H](CCCCNC(=O)COCCOCCNC(=O)COCCOCCNC(=O)CC[C@H](NC(=O)CCCCCCCCCCCCCCCCCCC(=O)O)C(=O)O)C(=O)NCC(=O)N1CCC[C@H]1C(=O)N[C@@H](CO)C(=O)N[C@@H](CO)C(=O)NCC(=O)N[C@@H](C)C(=O)N1CCC[C@H]1C(=O)N1CCC[C@H]1C(=O)N1CCC[C@H]1C(=O)N[C@@H](CO)C(N)=O)[C@@H](C)CC)[C@@H](C)CC` [Example 38] (H-Y[Aib]EGTFTSDYSILLDKIAQ[Aib]AFIEYLIEK([AEEA-AEEA-γGlu-C20 diacid])GPSSGAPPPS-NH2) has a Ki (human GIP receptor) of 0.104 nM, a Ki (human Gcg receptor) of over 974 nM and an EC50 [1] of 0.147 nM. The EC50 [2] was 2.82 nM and the Ki (human GLP-1R) was 31.3 nM.

For `CC[C@H](C)[C@H](NC(=O)[C@H](CCCCN)NC(=O)[C@H](CC(=O)O)NC(=O)[C@H](CC(C)C)NC(=O)[C@H](CC(C)C)NC(=O)[C@@H](NC(=O)[C@H](CO)NC(=O)[C@H](Cc1ccc(O)cc1)NC(=O)[C@H](CC(=O)O)NC(=O)[C@H](CO)NC(=O)[C@@H](NC(=O)[C@H](Cc1ccccc1)NC(=O)[C@@H](NC(=O)CNC(=O)[C@H](CCC(=O)O)NC(=O)C(C)(C)NC(=O)[C@@H](N)Cc1ccc(O)cc1)[C@@H](C)O)[C@@H](C)O)[C@@H](C)CC)C(=O)N[C@@H](C)C(=O)N[C@@H](CCC(N)=O)C(=O)NC(C)(C)C(=O)N[C@@H](C)C(=O)N[C@@H](Cc1ccccc1)C(=O)N[C@H](C(=O)N[C@@H](CCC(=O)O)C(=O)N[C@@H](Cc1ccc(O)cc1)C(=O)N[C@@H](CC(C)C)C(=O)N[C@H](C(=O)N[C@@H](CCC(=O)O)C(=O)NCC(=O)N[C@@H](CCCCNC(=O)COCCOCCNC(=O)COCCOCCNC(=O)CC[C@H](NC(=O)CCCCCCCCCCCCCCCCCCC(=O)O)C(=O)O)C(=O)N1CCC[C@H]1C(=O)N[C@@H](CO)C(=O)N[C@@H](CO)C(=O)NCC(=O)N[C@@H](C)C(=O)N1CCC[C@H]1C(=O)N1CCC[C@H]1C(=O)N1CCC[C@H]1C(=O)N[C@@H](CO)C(N)=O)[C@@H](C)CC)[C@@H](C)CC` [Example 39] (H-Y[Aib]EGTFTSDYSILLDKIAQ[Aib]AFIEYLIEGK([AEEA-AEEA-γGlu-C20 diacid])PSSGAPPPS-NH2), the Ki (human GIP receptor) was 0.0499 nM, the Ki (human Gcg receptor) was 161 nM and the EC50 [1] was 0.133 nM. It also gave an EC50 [2] of 1.92 nM and a Ki (human GLP-1R) of 16.8 nM.
